According to patent publication US11485742B2, “2-azaspiro[3.4]octane derivatives as M4 agonists” (NOVARTIS AG, priority 2019, dated 2022):

Columns and labels:
Type in all cases: cell-based
[1] = target: T1, human cloned CHRM5 receptor (Homo sapiens, UniProt P08912); assay: CHRM5 Ca++ Flux Assay (M5_CHO cells, agonist mode); conditions: for M5 FDSS PA %: Percent Activity (PA) measured to EC100 of Carbachol; for EC50: agonist mode, geometric mean if tested more than once, read-out: M5 FDSS EC50
T1 construct: expressed in transfected cells; host or cells: CHO (M5_CHO)
T1 sequence (P08912 1-532): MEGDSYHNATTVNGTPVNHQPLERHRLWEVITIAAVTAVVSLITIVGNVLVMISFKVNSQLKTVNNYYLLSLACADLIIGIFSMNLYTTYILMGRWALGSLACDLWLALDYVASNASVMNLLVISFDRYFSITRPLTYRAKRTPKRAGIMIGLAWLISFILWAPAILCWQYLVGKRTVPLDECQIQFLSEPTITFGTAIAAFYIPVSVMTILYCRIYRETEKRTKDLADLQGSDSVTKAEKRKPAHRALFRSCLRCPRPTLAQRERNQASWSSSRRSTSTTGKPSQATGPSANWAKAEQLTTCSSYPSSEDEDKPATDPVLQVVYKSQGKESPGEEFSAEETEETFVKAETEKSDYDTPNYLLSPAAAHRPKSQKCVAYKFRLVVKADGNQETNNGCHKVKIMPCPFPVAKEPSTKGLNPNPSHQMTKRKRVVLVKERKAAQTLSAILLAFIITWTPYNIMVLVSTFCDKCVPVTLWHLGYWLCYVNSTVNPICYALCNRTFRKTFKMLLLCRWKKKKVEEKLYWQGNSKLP
Experimental: (§1) The above examples were characterized by measuring the intracellular mobilization of Ca^++ ions caused by signaling events mediated by the receptor. The Intra-cellular Calcium flux levels were captured by the highly sensitive Ca^++ indicator, Calcium Assay Kit (BD Biosciences; Catalog Number 640178. The fluorescent activity from all receptors were monitored by the fluorescent imager, FDSS 7000EX (Hamamatsu) over a span of 3 minutes. The change in Calcium flux was readily captured upon activation with the muscarinic orthosteric agonist, Carbachol.
(§2) CHO-K1 cells stably expressing the human cloned CHRM3 receptor (M3_CHO cells) were grown and maintained in a monolayer culture with F12/HAM (Life Technologies) supplemented with 10% Fetal Bovine Serum, IX Pen-Strep, and 0.4 mg/mL Geneticin in a humidified atmosphere (5% CO2) at 37° C. The cultures were grown to 80-90% confluency in T150 flasks (Corning) and washed with 1×DPBS and lifted with 0.05% Trypsin (Life Technologies). The cells were then spun (1K rpm, 3 minutes) and frozen using Recovery Cell Culture Freezing Media (Gibco Technologies). Cells were stored in liquid nitrogen and thawed a day before the assay. A similar procedure was used for cells stably expressing the human cloned CHRM5 receptor (M5_CHO).
(§3) Prior to the day of the assay, stable M3_CHO or M5_CHO cells were thawed and plated on Greiner 384 well black TC treated plates at 12K cells/well in F12/DMEM supplemented with 10% FBS (Hyclone) and kept overnight in a humidified atmosphere (5% CO2) at 37° C. The next day, cells were loaded with Ca^++ dye (BD Biosciences) using Loading Buffer (HBSS +Ca/+Mg, 20 mM HEPES, 2.5 mM Probenecid) and placed back in cell incubator for a minimum of 1 hour. After incubation, the dye was replaced with Assay Buffer (HBSS −Ca/−Mg, 20 mM HEPES, 2.5 mM Probenecid) and kept at room temperature in the dark before running on cell imager. The FDSS 7000EX (Hamamatsu) was used to acquire Ca^+− traces from cells treated with 11 point dose response of compounds in triplicate in order to generate dose response curves in agonist mode. All compounds were serially diluted in DMSO then prepared in Assay Buffer for Ca^++ flux studies. The dose response curves were generated from the average of triplicate wells obtained from each data point and used a non-linear regression of four parameter dose response algorithm. The Percent Activity (PA) was measured to EC100 of Carbachol.
(§4) If an Example was tested more than once in an assay, then the values below represent the geometric mean of the results from each independent experiment.

[2] = target: T2, human cloned CHRM3 receptor (Homo sapiens, UniProt P20309); assay: CHRM3 Ca++ Flux Assay (M3_CHO cells, agonist mode); conditions: for M3 FDSS PA %: Percent Activity (PA) measured to EC100 of Carbachol; for EC50: agonist mode, geometric mean if tested more than once, read-out: M3 FDSS EC50
T2 construct: expressed in transfected cells; host or cells: CHO-K1 (M3_CHO)
Experimental: as §1, §2, §3, §4

[3] = target: T3, Cloned human M1 receptor (CHRM1) (Homo sapiens, UniProt P11229); assay: CHRM1 Ca++ Flux Assay (HEK293 M1 cells, agonist mode); conditions: for M1 FDSS PA %: Percent Activity (PA); for EC50: geometric mean if tested more than once, read-out: M1 FDSS EC50
T3 construct: expressed in transfected cells; host or cells: HEK293
T3 sequence (P11229 1-460): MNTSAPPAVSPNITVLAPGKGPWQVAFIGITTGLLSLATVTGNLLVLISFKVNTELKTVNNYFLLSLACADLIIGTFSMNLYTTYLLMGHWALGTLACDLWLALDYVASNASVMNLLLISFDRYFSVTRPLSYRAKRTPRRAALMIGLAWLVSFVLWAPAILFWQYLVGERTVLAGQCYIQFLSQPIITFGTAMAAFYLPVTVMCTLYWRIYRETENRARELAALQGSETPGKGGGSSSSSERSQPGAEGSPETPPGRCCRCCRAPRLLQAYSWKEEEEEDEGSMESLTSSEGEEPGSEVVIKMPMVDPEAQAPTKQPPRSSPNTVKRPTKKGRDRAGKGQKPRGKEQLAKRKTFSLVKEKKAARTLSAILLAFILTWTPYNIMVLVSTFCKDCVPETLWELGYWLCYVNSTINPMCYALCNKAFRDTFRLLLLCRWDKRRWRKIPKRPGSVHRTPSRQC
Experimental: as §1
Cloned human M1 receptor (CHRM1) was stably expressed in HEK293 cells and were grown and maintained in a monolayer culture with DMEM/High Glucose (Life Technologies) supplemented with 10% Fetal Bovine Serum, 1×Pen-Strep, and 0.5 mg/mL Geneticin in a humidified atmosphere (5% CO2) at 37° C. The cultures were grown to 90% confluency in T150 flasks (Corning) and washed with 1×DPBS and lifted with 0.05% Trypsin (Life Technologies). The cells were then spun (1K rpm, 3 minutes) and frozen using Recovery Cell Culture Freezing Media (Gibco Technologies). Cells were stored in liquid nitrogen and thawed a day before the assay.
Prior to the day of the assay, stable HEK293 M1 cells were thawed and plated on 384 well black walled clear bottom TC treated plates (Greiner Cat #781091) at 25K cells/well with DMEM/High Glucose supplemented with 10% FBS (Hyclone) Pen-Strep (Life Technologies) and kept overnight in a humidified atmosphere (5% CO2) at 37° C. The following day, cells were loaded with 20 uL Ca^++ dye (BD Biosciences) using Loading Buffer (HBSS +Ca/+Mg, 20 mM HEPES) and placed back in cell incubator for a minimum of 1 hour. The dye was replaced with 45 μL Assay Buffer (HBSS −Ca/−Mg, 20 mM HEPES) and kept at room temperature prior to running on cell imager. Compounds were prepared in Assay Buffer and 5 uL was added to the cells. The FDSS 7000EX (Hamamatsu) was used to acquire Ca++ traces for 3 minutes from cells treated with 11 point dose in triplicate in order to generate dose response curves in agonist mode. All compounds were serially diluted in DMSO then prepared in Assay Buffer for Ca^++ flux studies. The dose response curves were generated from the average of triplicate wells obtained from each data point and used a non-linear regression of four parameter dose response algorithm. The Percent Activity (PA) was measured to EC100 of Carbachol.
as §4

T2 sequence (P20309 whole entry): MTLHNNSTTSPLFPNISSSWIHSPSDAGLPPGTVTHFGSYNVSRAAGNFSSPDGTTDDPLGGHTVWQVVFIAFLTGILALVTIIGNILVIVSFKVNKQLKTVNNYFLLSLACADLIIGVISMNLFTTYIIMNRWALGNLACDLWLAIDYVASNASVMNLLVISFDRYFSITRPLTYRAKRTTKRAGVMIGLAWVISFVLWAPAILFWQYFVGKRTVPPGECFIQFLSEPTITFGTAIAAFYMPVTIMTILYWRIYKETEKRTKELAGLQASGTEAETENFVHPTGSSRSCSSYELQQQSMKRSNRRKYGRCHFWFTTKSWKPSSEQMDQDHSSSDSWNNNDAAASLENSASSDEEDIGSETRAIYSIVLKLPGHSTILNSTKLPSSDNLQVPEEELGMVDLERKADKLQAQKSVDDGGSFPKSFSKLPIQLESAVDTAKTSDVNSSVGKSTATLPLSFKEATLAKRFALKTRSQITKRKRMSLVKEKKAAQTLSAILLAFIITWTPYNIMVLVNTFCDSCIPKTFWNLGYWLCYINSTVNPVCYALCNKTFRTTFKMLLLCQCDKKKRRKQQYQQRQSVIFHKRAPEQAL

M5 FDSS PA % [1] [%] | EC50 [1] [µM] | M3 FDSS PA % [2] [%] | EC50 [2] [µM] | M1 FDSS PA % [3] [%] | EC50 [3] [µM] | Compound
0 | > 25 | 20 | 10.7 | 84 | 2.41 | O[C@H]1CC[C@@H](c2ccc(F)cc2C2CCN([C@@H]3COC4(C3)CN(c3nnco3)C4)CC2)CC1 (single isomer, unassigned) [Example 3H, (1R,4s)-4-(2-(1-((S)-2-(1,3,4-oxadiazol-2-yl)-5-oxa-2-azaspiro[3.4]octan-7-yl)piperidin-4-yl)-4-fluorophenyl)cyclohexan-1-ol or (1S,4r)-4-(2-(1-((S)-2-(1,3,4-oxadiazol-2-yl)-5-oxa-2-azaspiro[3.4]octan-7-yl)piperidin-4-yl)-4-fluorophenyl)cyclohexan-1-ol]
0 | > 25 | 0 | > 25 | 76 | 3.31 | O[C@H]1CC[C@@H](c2ccc(F)cc2C2CCN([C@@H]3COC4(C3)CN(c3nnco3)C4)CC2)CC1 (single isomer, unassigned) [Example 3I, (1R,4s)-4-(2-(1-((S)-2-(1,3,4-oxadiazol-2-yl)-5-oxa-2-azaspiro[3.4]octan-7-yl)piperidin-4-yl)-4-fluorophenyl)cyclohexan-1-ol or (1S,4r)-4-(2-(1-((S)-2-(1,3,4-oxadiazol-2-yl)-5-oxa-2-azaspiro[3.4]octan-7-yl)piperidin-4-yl)-4-fluorophenyl)cyclohexan-1-ol]
0 | > 25 | 0 | > 25 | 63 | 0.909 | CC(C)(O)[C@H]1C[C@@H](Oc2ccc(F)cc2C2CCN([C@@H]3COC4(C3)CN(c3ncco3)C4)CC2)C1 (single isomer, unassigned) [Example 4T, 2-((1R,3s)-3-(4-fluoro-2-(1-((S)-2-(oxazol-2-yl)-5-oxa-2-azaspiro[3.4]octan-7-yl)piperidin-4-yl)phenoxy)cyclobutyl)propan-2-ol or 2-((1S,3r)-3-(4-fluoro-2-(1-((S)-2-(oxazol-2-yl)-5-oxa-2-azaspiro[3.4]octan-7-yl)piperidin-4-yl)phenoxy)cyclobutyl)propan-2-ol]
0 | > 25 | 0 | > 25 | 55 | 2.24 | CC(C)(O)[C@H]1C[C@@H](Oc2ccc(F)cc2C2CCN([C@@H]3COC4(C3)CN(c3ncco3)C4)CC2)C1 (single isomer, unassigned) [Example 4U, 2-((1R,3s)-3-(4-fluoro-2-(1-((S)-2-(oxazol-2-yl)-5-oxa-2-azaspiro[3.4]octan-7-yl)piperidin-4-yl)phenoxy)cyclobutyl)propan-2-ol or 2-((1S,3r)-3-(4-fluoro-2-(1-((S)-2-(oxazol-2-yl)-5-oxa-2-azaspiro[3.4]octan-7-yl)piperidin-4-yl)phenoxy)cyclobutyl)propan-2-ol]

Compound | M5 FDSS PA % [1] [%] | EC50 [1] [µM] | M3 FDSS PA % [2] [%] | EC50 [2] [µM] | M1 FDSS PA % [3] [%] | EC50 [3] [µM]
Fc1ccc([C@H]2CCOC2)c(C2CCN([C@@H]3COC4(C3)CN(c3nnco3)C4)CC2)c1 (single isomer, unassigned) [Example 3F, (S)-7-(4-(5-fluoro-2-((R)-tetrahydrofuran-3-yl)phenyl)piperidin-1-yl)-2-(1,3,4-oxadiazol-2-yl)-5-oxa-2-azaspiro[3.4]octane or (S)-7-(4-(5-fluoro-2-((S)-tetrahydrofuran-3-yl)phenyl)piperidin-1-yl)-2-(1,3,4-oxadiazol-2-yl)-5-oxa-2-azaspiro[3.4]octane] | 0 | > 25 | 0 | > 25 | 86 | 0.595
